Source: US9040545B2, “Heterocyclyl pyrazolopyrimidine analogues as selective JAK inhibitors” (Cellzome Limited, priority 2010, dated 2015)

Biological target: T1, JAK3 (Homo sapiens, UniProt P52333)
T1 construct: endogenous in cells; host or cells: mixed Molt4/Ramos lysate (1:2)
T1 sequence (P52333 1-1124): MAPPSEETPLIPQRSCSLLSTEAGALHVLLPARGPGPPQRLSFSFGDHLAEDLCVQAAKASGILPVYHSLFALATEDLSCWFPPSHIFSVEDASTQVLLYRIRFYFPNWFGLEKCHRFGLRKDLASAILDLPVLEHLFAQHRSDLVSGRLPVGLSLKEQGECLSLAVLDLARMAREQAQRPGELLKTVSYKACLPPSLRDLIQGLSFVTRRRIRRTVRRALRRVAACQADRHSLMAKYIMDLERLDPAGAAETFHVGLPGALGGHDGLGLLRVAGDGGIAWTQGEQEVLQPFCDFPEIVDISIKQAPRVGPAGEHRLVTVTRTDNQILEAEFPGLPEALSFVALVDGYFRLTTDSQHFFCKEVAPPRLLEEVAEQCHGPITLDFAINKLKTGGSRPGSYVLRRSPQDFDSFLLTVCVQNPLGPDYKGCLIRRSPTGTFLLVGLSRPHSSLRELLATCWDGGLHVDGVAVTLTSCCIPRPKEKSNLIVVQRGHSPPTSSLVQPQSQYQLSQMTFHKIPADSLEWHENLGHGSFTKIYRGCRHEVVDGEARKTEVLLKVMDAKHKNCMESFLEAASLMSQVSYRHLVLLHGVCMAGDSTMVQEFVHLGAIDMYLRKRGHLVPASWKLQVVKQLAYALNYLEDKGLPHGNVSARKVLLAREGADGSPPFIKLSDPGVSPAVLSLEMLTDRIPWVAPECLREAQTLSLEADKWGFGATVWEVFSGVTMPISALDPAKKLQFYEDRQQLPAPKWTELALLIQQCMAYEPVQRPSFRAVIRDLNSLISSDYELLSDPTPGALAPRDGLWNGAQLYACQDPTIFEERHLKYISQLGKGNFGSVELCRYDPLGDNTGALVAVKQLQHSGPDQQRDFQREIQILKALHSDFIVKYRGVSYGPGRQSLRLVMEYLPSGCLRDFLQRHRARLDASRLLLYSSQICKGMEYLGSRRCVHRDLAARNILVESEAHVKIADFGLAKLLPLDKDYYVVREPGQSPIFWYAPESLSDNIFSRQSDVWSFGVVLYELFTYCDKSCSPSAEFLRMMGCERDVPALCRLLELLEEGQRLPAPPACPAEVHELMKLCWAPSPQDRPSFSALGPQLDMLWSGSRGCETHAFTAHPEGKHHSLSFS
Assay: Kinobeads assay, JAK3
Format: binding
Details: mixed Molt4/Ramos lysate, read-out: Inhibition values (IC50) JAK3
Description: The compounds of the present invention as described in the previous examples were tested in a Kinobeads™ assay as described for ZAP-70 (WO-A 2007/137867). Briefly, test compounds (at various concentrations) and the affinity matrix with the immobilized aminopyrido-pyrimidine ligand 24 were added to cell lysate aliquots and allowed to bind to the proteins in the lysate sample. After the incubation time the beads with captured proteins were separated from the lysate. Bound proteins were then eluted and the presence of JAK2 and JAK3 was detected and quantified using specific antibodies in a dot blot procedure and the Odyssey infrared detection system. Dose response curves for individual kinases were generated and IC50 values calculated. Kinobeads™ assays for ZAP-70 (WO-A 2007/137867) and for kinase selectivity profiling (WO-A 2006/134056) have been previously described.
The affinity matrix was washed two times with 15 mL of 1×DP buffer containing 0.2% NP40 (IGEPAL® CA-630, Sigma, #I3021) and then resuspended in 1×DP buffer containing 0.2% NP40 (3% beads slurry).
5×DP buffer 250 mM Tris-HCl pH 7.4, 25% Glycerol, 7.5 mM MgCl2, 750 mM NaCl, 5 mM Na3VO4; filter the 5×DP buffer through a 0.22 μm filter and store in aliquots at −80° C. The 5×DP buffer is diluted with H2O to 1×DP buffer containing 1 mM DTT and 25 mM NaF.
Stock solutions of test compounds were prepared in DMSO. In a 96 well plate 30 μL solution of diluted test compounds at 5 mM in DMSO were prepared. Starting with this solution a 1:3 dilution series (9 steps) was prepared. For control experiments (no test compound) a buffer containing 2% DMSO was used.
Molt4 cells (ATCC catalogue number CRL-1582) and Ramos cells (ATCC catalogue number CRL-1596) were grown in 1 L Spinner flasks (Integra Biosciences, #182101) in suspension in RPMI 1640 medium (Invitrogen, #21875-034) supplemented with 10% Fetal Bovine Serum (Invitrogen) at a density between 0.15×106 and 1.2×10^6 cells/mL. Cells were harvested by centrifugation, washed once with 1×PBS buffer (Invitrogen, #14190-094) and cell pellets were frozen in liquid nitrogen and subsequently stored at −80° C. Cells were homogenized in a Potter S homogenizer in lysis buffer: 50 mM Tris-HCl, 0.8% NP40, 5% glycerol, 150 mM NaCl, 1.5 mM MgCl2, 25 mM NaF, 1 mM sodium vanadate, 1 mM DTT, pH 7.5. One complete EDTA-free tablet (protease inhibitor cocktail, Roche Diagnostics, 1873580) per 25 mL buffer was added. The material was dounced 10 times using a mechanized POTTER S, transferred to 50 mL falcon tubes, incubated for 30 minutes on ice and spun down for 10 minutes at 20,000 g at 4° C. (10,000 rpm in Sorvall SLA600, precooled). The supernatant was transferred to an ultracentrifuge (UZ)-polycarbonate tube (Beckmann, 355654) and spun for 1 hour at 100,000 g at 4° C. (33.500 rpm in Ti50.2, precooled). The supernatant was transferred again to a fresh 50 mL falcon tube, the protein concentration was determined by a Bradford assay (BioRad) and samples containing 50 mg of protein per aliquot were prepared. The samples were immediately used for experiments or frozen in liquid nitrogen and stored frozen at −80° C.
Cell lysate (approximately 50 mg protein per plate) was thawed in a water bath at room temperature and then stored on ice. To the thawed cell lysate 1×DP 0.8% NP40 buffer containing protease inhibitors (1 tablet for 25 mL buffer; EDTA-free protease inhibitor cocktail; Roche Diagnostics 1873580) was added in order to reach a final protein concentration of 10 mg/mL total protein. The diluted cell lysate was stored on ice. Mixed Molt4/Ramos lysate was prepared by combining one volume of Molt4 lysate and two volumes of Ramos lysate (ratio 1:2).
To a 96 well filter plate (Multiscreen HTS, BV Filter Plates, Millipore #MSBVN1250) were added per well: 100 μL affinity matrix (3% beads slurry), 3 μL of compound solution, and 50 μL of diluted lysate. […]

SMILES	IC50
Cn1cc(Nc2ncc3cnn(Cc4cccc(N5CCNCC5)c4)c3n2)cn1 [Example 22, N-(1-Methyl-1H-pyrazol-4-yl)-1-(3-(piperazin-1-yl)benzyl)-1H-pyrazolo[3,4-d]pyrimidin-6-amine]	< 100 nM
FC(F)Cn1cc(Nc2ncc3cnn(Cc4cccc(N5CCOCC5)c4)c3n2)cn1 [Example 23, N-(1-(2,2-Difluoroethyl)-1H-pyrazol-4-yl)-1-(3-morpholinobenzyl)-1H-pyrazolo[3,4-d]pyrimidin-6-amine]	< 100 nM
CNC(=O)CCn1cc(Nc2ncc3cnn(Cc4cccc(N5CCOCC5)c4)c3n2)cn1 [Example 24, N-Methyl-3-(4-((1-(3-morpholinobenzyl)-1H-pyrazolo[3,4-d]pyrimidin-6-yl)amino)-1H-pyrazol-1-yl)propanamide]	< 100 nM
Cn1cc(Nc2ncc3cnn(Cc4cccc(N5CCS(=O)(=O)CC5)c4)c3n2)cn1 [Example 25, 4-(3-((6-((1-Methyl-1H-pyrazol-4-yl)amino)-1H-pyrazolo[3,4-d]pyrimidin-1-yl)methyl)phenyl)thiomorpholine 1,1-dioxide]	< 100 nM
Cn1cc(Nc2ncc3cnn(Cc4cccc(N5CC6CCC(C5)O6)c4)c3n2)cn1 [Example 26]	< 100 nM
Cn1cc(Nc2ncc3cnn(Cc4cccc(N5CCOCC5=O)c4)c3n2)cn1 [Example 27, 4-(3-((6-((1-Methyl-1H-pyrazol-4-yl)amino)-1H-pyrazolo[3,4-d]pyrimidin-1-yl)methyl)phenyl)morpholin-3-one]	< 100 nM
CN(C)CCCn1cc(Nc2ncc3cnn(Cc4cccc(N5CCOCC5=O)c4)c3n2)cn1 [Example 28, 4-(3-((6-((1-(3-(Dimethylamino)propyl)-1H-pyrazol-4-yl)amino)-1H-pyrazolo[3,4-d]pyrimidin-1-yl)methyl)phenyl)morpholin-3-one]	< 100 nM
O=C1COCCN1c1cccc(Cn2ncc3cnc(Nc4cnn(CCO)c4)nc32)c1 [Example 29, 4-(3-((6-((1-(2-Hydroxyethyl)-1H-pyrazol-4-yl)amino)-1H-pyrazolo[3,4-d]pyrimidin-1-yl)methyl)phenyl)morpholin-3-one]	< 100 nM
O=C1CCCN1CCCn1cc(Nc2ncc3cnn(Cc4cccc(N5CCOCC5)c4)c3n2)cn1 [Example 30, 1-(3-(4-((1-(3-Morpholinobenzyl)-1H-pyrazolo[3,4-d]pyrimidin-6-yl)amino)-1H-pyrazol-1-yl)propyl)pyrrolidin-2-one]	< 100 nM
CN(C)CC1(Cn2cc(Nc3ncc4cnn(Cc5cccc(N6CCOCC6)c5)c4n3)cn2)COC1 [Example 31, N-(1-((3-((Dimethylamino)methyl)oxetan-3-yl)methyl)-1H-pyrazol-4-yl)-1-(3-morpholinobenzyl)-1H-pyrazolo[3,4-d]pyrimidin-6-amine]	< 100 nM
CC(CN(C)C)Cn1cc(Nc2ncc3cnn(Cc4cccc(N5CCOCC5)c4)c3n2)cn1 (centres unmarked) [Example 32, N-(1-(3-(Dimethylamino)-2-methylpropyl)-1H-pyrazol-4-yl)-1-(3-morpholinobenzyl)-1H-pyrazolo[3,4-d]pyrimidin-6-amine]	< 100 nM
CN(C)CC(O)Cn1cc(Nc2ncc3cnn(Cc4cccc(N5CCOCC5)c4)c3n2)cn1 (centres unmarked) [Example 33, 1-(Dimethylamino)-3-(4-((1-(3-morpholinobenzyl)-1H-pyrazolo[3,4-d]pyrimidin-6-yl)amino)-1H-pyrazol-1-yl)propan-2-ol]	< 100 nM
NCCCn1cc(Nc2ncc3cnn(Cc4cccc(N5CCOCC5)c4)c3n2)cn1 [Example 34, N-(1-(3-Aminopropyl)-1H-pyrazol-4-yl)-1-(3-morpholinobenzyl)-1H-pyrazolo[3,4-d]pyrimidin-6-amine]	< 100 nM

Continued, values first:

IC50	SMILES
< 100 nM	O=C(CCn1cc(Nc2ncc3cnn(Cc4cccc(N5CCOCC5)c4)c3n2)cn1)NC1CC1 [Example 35, N-Cyclopropyl-3-(4-((1-(3-morpholinobenzyl)-1H-pyrazolo[3,4-d]pyrimidin-6-yl)amino)-1H-pyrazol-1-yl)propanamide]
< 100 nM	Cn1cc(Nc2ncc3cnn(Cc4cccc(N5CCNCC5=O)c4)c3n2)cn1 [Example 36, 1-(3-((6-((1-Methyl-1H-pyrazol-4-yl)amino)-1H-pyrazolo[3,4-d]pyrimidin-1-yl)methyl)phenyl)piperazin-2-one]
100 to 1000 nM	Cn1cc(Nc2ncc3cnn(Cc4cc(N5CCOCC5)cc(F)c4F)c3n2)cn1 [Example 37, 1-(2,3-Difluoro-5-morpholinobenzyl)-N-(1-methyl-1H-pyrazol-4-yl)-1H-pyrazolo[3,4-d]pyrimidin-6-amine]
< 100 nM	Cn1cc(Nc2ncc3cnn(Cc4c(F)ccc(N5CCOCC5)c4F)c3n2)cn1 [Example 38, 1-(2,6-Difluoro-3-morpholinobenzyl)-N-(1-methyl-1H-pyrazol-4-yl)-1H-pyrazolo[3,4-d]pyrimidin-6-amine]
< 100 nM	OCCn1cc(Nc2ncc3cnn(Cc4cccc(N5CCOCC5)c4F)c3n2)cn1 [Example 39, 2-(4-((1-(2-Fluoro-3-morpholinobenzyl)-1H-pyrazolo[3,4-d]pyrimidin-6-yl)amino)-1H-pyrazol-1-yl)ethanol]
< 100 nM	Cn1cc(Nc2ncc3cnn(Cc4cccc(N5CCOCC5=O)c4F)c3n2)cn1 [Example 40, 4-(2-Fluoro-3-((6-((1-methyl-1H-pyrazol-4-yl)amino)-1H-pyrazolo[3,4-d]pyrimidin-1-yl)methyl)phenyl)morpholin-3-one]
< 100 nM	CNCC1(Cn2cc(Nc3ncc4cnn(Cc5cccc(N6CCOCC6)c5)c4n3)cn2)COC1 [Example 41, N-(1-((3-((Methylamino)methyl)oxetan-3-yl)methyl)-1H-pyrazol-4-yl)-1-(3-morpholinobenzyl)-1H-pyrazolo[3,4-d]pyrimidin-6-amine]
